In patent publication US8637496B2, “Compounds having a monogalactosyldiacylglycerol synthase inhibitory activity as herbicide or algaecide, herbicide and algaecide compositions” (Commissariat a l'Energie Atomique, priority 2007, dated 2014):
Read-outs that look alike come from different tables or passages of the source.

Key:
[1] = target: T1, spinach recombinant MGDG synthase (soMGD) (Spinacia oleracea, UniProt Q9SM44); experiment: MGDG synthase enzymatic assay of recombinant spinach MGD protein in mixed micelles; type: biochemical; conditions: recombinant enzyme expressed in E. coli, FIG. 2, read-out: IC50, inhibition of spinach recombinant MGDG synthase (soMGD) activity
T1 construct: The cDNA fragments corresponding to the mature form of spinach MGDG synthase, soMGD1; made in house; host or cells: Escherichia coli BL21-DE3, pET-3a (NdeI-BamHI)
T1 sequence (Q9SM44 99-522): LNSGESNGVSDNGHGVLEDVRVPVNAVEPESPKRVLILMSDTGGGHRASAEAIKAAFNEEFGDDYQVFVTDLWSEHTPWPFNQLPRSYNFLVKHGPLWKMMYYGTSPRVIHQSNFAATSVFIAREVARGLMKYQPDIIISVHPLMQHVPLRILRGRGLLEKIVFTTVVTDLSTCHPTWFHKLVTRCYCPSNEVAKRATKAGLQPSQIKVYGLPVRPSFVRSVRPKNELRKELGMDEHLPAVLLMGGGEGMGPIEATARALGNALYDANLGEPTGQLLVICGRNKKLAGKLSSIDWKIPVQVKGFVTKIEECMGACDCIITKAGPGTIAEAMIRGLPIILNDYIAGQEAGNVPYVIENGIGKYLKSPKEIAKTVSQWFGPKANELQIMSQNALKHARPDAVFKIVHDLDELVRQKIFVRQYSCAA
Source text: The cDNA fragments corresponding to the mature form of spinach MGDG synthase, soMGD1 [accession number CAB56218], and from the three isoforms that are present in Arabidopsis, i.e. atMGD1 [accession number BAB12042], atMGD2 [accession number T52269] and atMGD3 [accession number BAB12041] were inserted into the pET-3a expression vector from Novagen, as described by Miège C. et al., Eur. J. Biochem, 1999, 265, 990-1001 and Awai K. et al., Proc. Natl. Acad. Sci. U.S.A., 2001, 98, 10960-10965. All MGD sequences used in this study were inserted in NdeI-BamHI cloning site of the pET-3a vector. Induction of recombinant proteins was achieved following the pET expression system procedure. Isolated colonies of transfected Escherichia coli (BL21-DE3) were inoculated in LB medium (2.5 ml, 100 μg/ml carbenicillin) and grown at 37° C. When OD600 reached 0.5, the cell suspension was transferred to 15 ml of LB medium ([…] carbenicillin) and grown at 37° C. until OD600 reached 0.5. […]
The MGDG synthase enzymatic assay was achieved as described by Maréchal E. et al., J. Biol. Chem., 1995, 270, 5714-5722. […] J. Biochem. Physiol., 1959, 37, 911-917 and the radioactivity of the [^14C]-labelled MGDG ultimately produced, determined by liquid scintillation counting. […]

[2] = target: T2, MGDG synthase in isolated spinach chloroplast envelope membranes (Spinacia oleracea, UniProt Q9SM44); experiment: MGDG synthase activity in envelope membrane fractions isolated from spinach chloroplasts; type: biochemical
T2 construct: envelope membranes purified from the lysate by sucrose centrifugation gradient; from tissue; host or cells: envelope membranes of chloroplasts from spinach leaves
T2 sequence (Q9SM44 99-522): T1 sequence (Q9SM44 99-522)
In short: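 Envelope membranes purified from Percoll-isolated spinach chloroplasts by hypotonic lysis and sucrose gradient; MGDG synthase activity measured per published protocol.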

[3] = Table 1, obtained in the same manner as FIG. 4, read-out: Inhibitory effect on MGDG synthesis in isolated spinach chloroplast envelope membranes

| IC50 [1] [µM] | IC50 [2, 3] [µM] | IC50 ([2]; spinach chloroplast envelope membranes, FIG. 4, read-out: IC50, MGDG synthase activity in envelope membranes that surround chloroplasts) [µM] | Compound |
| --- | --- | --- | --- |
| 45 | 45 | 10 | C[C@@H](COC(=O)N1CCC(n2c(=O)[nH]c3ccccc32)CC1)N(Cc1ccccc1)Cc1ccccc1 [Compound 7, (S)-2-(dibenzylamino)propyl 4-(1,2-dihydro-2-oxobenzo[d]imidazol-3-yl)piperidine-1-carboxylate] |
| 100 | 10 | – | O=C(OC[C@H](Cc1ccccc1)N(Cc1ccccc1)Cc1ccccc1)N1CCC(n2c(=O)[nH]c3ccccc32)CC1 [Compound 8, (S)-2-(dibenzylamino)-3-phenylpropyl 4-(1,2-dihydro-2-oxobenzo[d]imidazol-3-yl)piperidine-1-carboxylate] |
